“Also recorded” adds a separate entry of the source. Counter-ions that a name gives are not always drawn. Like-named read-outs stand apart in the source and are kept apart here.
How the values were obtained:
Assay type in all cases: physicochemical
[1] = 10-day solid stress stability study, HPLC purity test; conditions: for chemical stability (in words): 10-day solid stress: heat, heat and humidity
Description: Increased stability to ambient humidity is beneficial for longer-term physical and chemical stability of the active ingredient. The relationship between the reduced hygroscopic nature and the increased chemical stability associated with it is shown in the most preferred citrate salts in comparison to the dihydrochloride salt.

[2] = Dynamic vapor sorption (DVS) analysis at 25° C., hygroscopicity and deliquescence; set-up: Δm/ΔRH: unit not given beside the values; conditions: for Critical Relative Humidity (CRH): DVS at 25° C., RH1 of first sorption step with Δm/ΔRH≥0.5; for Δm/ΔRH: sorption, 25° C.; for water bound: sorption curve
Method: Determination of the critical relative humidity is feasible by gravimetric method, e.g. with DVS, where relative humidity is changed in suitably selected steps and a sufficiently long time is used to the onset of quasi-equilibrium.
The deliquescence tendency of each salt is characterized by the critical relative humidity (CRH) value (Table 1), which was determined based on the sorption curves measured according to the measurement parameter settings below, with DVS analysis at 25° C. isotherm conditions, according to the following. […]
If the given sorption step is Δm/ΔRH≥0.5, then RH1 is considered to be the critical relative humidity (CRH) value indicating the end point of the physical stability of the substance. The value thus determined is a good match with the onset of a significant monotonic weight gain observed visually on the sorption curve. Above the critical relative humidity value, it is the process of deliquescence of the substance that determines the weight gain observed on the sorption curve.

[3] = Solubility in simulated gastric fluid; conditions: simulated gastric fluid (SGF without pepsin, pH=1.3)
Description: The generally observed hygroscopic nature of the 1-[4-(4-{3-[(2R)-2-methyl-pyrrolidin-1-yl]-propoxy}-phenoxy)-piperidin-1-yl]-ethanone salts is inter alia related to the good solubility thereof.

CC(=O)N1CCC(Oc2ccc(OCCCN3CCC[C@H]3C)cc2)CC1 [dicitrate, 1-[4-(4-{3-[(2R)-2-methyl-pyrrolidin-1-yl]-propoxy}-phenoxy)-piperidin-1-yl]-ethanone dicitrate salt]
chemical stability (in words) ([1]; dicitrate salt): stable
All contaminant (area %) ([1]; 10 days, 40° C., 75% RH, open glass, dicitrate salt): 0.24% area %
All contaminant (area %) ([1]; 10 days, 50° C., 75% RH, open glass, dicitrate salt): 0.25% area %
All contaminant (area %) ([1]; 10 days, 50° C., sealed glass, dicitrate salt): 0.23% area %
All contaminant (area %) ([1]; 10 days, 75° C., sealed glass, dicitrate salt): 0.24% area %
All contaminant (area %) ([1]; starting sample, dicitrate salt): 0.23% area %
Critical Relative Humidity (CRH) ([2]; dicitrate salt): not deliquescent
Δm/ΔRH ([2]; RH1 0%, dicitrate salt): 0.0
Δm/ΔRH ([2]; RH1 10%, dicitrate salt): 0.0
Δm/ΔRH ([2]; RH1 20%, dicitrate salt): 0.0
Δm/ΔRH ([2]; RH1 30%, dicitrate salt): 0.0
Δm/ΔRH ([2]; RH1 40%, dicitrate salt): 0.0
Δm/ΔRH ([2]; RH1 50%, dicitrate salt): 0.0
Δm/ΔRH ([2]; RH1 60%, dicitrate salt): 0.0
Δm/ΔRH ([2]; RH1 70%, dicitrate salt): 0.0
Δm/ΔRH ([2]; RH1 80%, dicitrate salt): 0.1
deliquescence (in words) ([2]; above 90% RH, DVS 25° C., dicitrate salt): does not show deliquescence
hygroscopicity (in words) ([2]; dicitrate salt): poorly hygroscopic
water bound ([2]; up to 80% RH, dicitrate salt): 3.2%
water bound ([2]; up to 90% RH): 6.8%
deliquescence (in words) ([2]; under the conditions of the DVS analysis, dicitrate salt): do not show deliquescence; also recorded: not deliquescent
solubility ([3]; dicitrate salt): 469 mM

CC(=O)N1CCC(Oc2ccc(OCCCN3CCC[C@H]3C)cc2)CC1 [monocitrate, 1-[4-(4-{3-[(2R)-2-methyl-pyrrolidin-1-yl]-propoxy}-phenoxy)-piperidin-1-yl]-ethanone monocitrate salt Form A]
chemical stability (in words) [1]: stable
All contaminant (area %) ([1]; 10 days, 40° C., 75% RH, open glass): 0.19% area %
All contaminant (area %) ([1]; 10 days, 50° C., 75% RH, open glass): 0.19% area %
All contaminant (area %) ([1]; 10 days, 50° C., sealed glass): 0.20% area %
All contaminant (area %) ([1]; 10 days, 75° C., sealed glass): 0.19% area %
All contaminant (area %) ([1]; starting sample): 0.19% area %
hygroscopicity (in words) [2]: poorly hygroscopic
Critical Relative Humidity (CRH) [2]: not deliquescent
Δm/ΔRH ([2]; RH1 0%): 0.0
Δm/ΔRH ([2]; RH1 10%): 0.0
Δm/ΔRH ([2]; RH1 20%): 0.2
Δm/ΔRH ([2]; RH1 30%): 0.1
Δm/ΔRH ([2]; RH1 40%): 0.0
Δm/ΔRH ([2]; RH1 50%): 0.0
Δm/ΔRH ([2]; RH1 60%): 0.0
Δm/ΔRH ([2]; RH1 70%): 0.0
Δm/ΔRH ([2]; RH1 80%): 0.0
deliquescence (in words) ([2]; above 90% RH, DVS 25° C.): did not show deliquescence
relative humidity at which monohydrate Form A converts to anhydrate Form B ([2]; during desorption): below 10 % RH
deliquescence (in words) ([2]; under the conditions of the DVS analysis): not deliquescent
deliquescence (in words) ([2]; under the conditions of the DVS analysis, listed as Monocitrate): do not show deliquescence
solubility [3]: greater than 44 mM
